Measured values published in PMC6407917, “Identification of GSK3186899/DDD853651 as a Preclinical Development Candidate for the Treatment of Visceral Leishmaniasis” (Journal of Medicinal Chemistry, 2018).

Key:
Assay in all cases: biochemical
Design in all cases: species or system HEK293/K-562/placenta mixed human extract; Kinobeads chemoproteomic competition binding, quantified by TMT LC-MS/MS, dose response up to 20 uM
[1] = biological target: LATS2 (Homo sapiens, UniProt Q9NRM7)
[2] = biological target: IRAK4 (Homo sapiens, UniProt Q9NWZ3)
IRAK4, sequence (Q9NWZ3 whole entry): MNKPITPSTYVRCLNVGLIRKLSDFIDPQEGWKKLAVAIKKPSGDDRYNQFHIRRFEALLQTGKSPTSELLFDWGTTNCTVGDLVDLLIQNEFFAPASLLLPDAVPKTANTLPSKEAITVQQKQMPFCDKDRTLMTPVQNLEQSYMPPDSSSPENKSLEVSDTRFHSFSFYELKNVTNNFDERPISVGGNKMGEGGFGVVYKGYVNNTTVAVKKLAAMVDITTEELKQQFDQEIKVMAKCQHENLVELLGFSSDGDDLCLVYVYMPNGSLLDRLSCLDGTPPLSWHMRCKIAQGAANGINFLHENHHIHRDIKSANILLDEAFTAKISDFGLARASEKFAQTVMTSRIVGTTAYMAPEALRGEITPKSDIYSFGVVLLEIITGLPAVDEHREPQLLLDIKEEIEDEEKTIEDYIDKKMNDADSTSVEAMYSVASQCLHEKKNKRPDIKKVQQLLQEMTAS

[3] = biological target: PAK6 (Homo sapiens, UniProt Q9NQU5)
[4] = biological target: FRK (Homo sapiens, UniProt P42685)
[5] = biological target: FGR (Homo sapiens, UniProt P09769)
[6] = biological target: FYN (Homo sapiens, UniProt P06241)
[7] = biological target: DSTYK (Homo sapiens, UniProt Q6XUX3)
DSTYK, sequence (Q6XUX3 whole entry): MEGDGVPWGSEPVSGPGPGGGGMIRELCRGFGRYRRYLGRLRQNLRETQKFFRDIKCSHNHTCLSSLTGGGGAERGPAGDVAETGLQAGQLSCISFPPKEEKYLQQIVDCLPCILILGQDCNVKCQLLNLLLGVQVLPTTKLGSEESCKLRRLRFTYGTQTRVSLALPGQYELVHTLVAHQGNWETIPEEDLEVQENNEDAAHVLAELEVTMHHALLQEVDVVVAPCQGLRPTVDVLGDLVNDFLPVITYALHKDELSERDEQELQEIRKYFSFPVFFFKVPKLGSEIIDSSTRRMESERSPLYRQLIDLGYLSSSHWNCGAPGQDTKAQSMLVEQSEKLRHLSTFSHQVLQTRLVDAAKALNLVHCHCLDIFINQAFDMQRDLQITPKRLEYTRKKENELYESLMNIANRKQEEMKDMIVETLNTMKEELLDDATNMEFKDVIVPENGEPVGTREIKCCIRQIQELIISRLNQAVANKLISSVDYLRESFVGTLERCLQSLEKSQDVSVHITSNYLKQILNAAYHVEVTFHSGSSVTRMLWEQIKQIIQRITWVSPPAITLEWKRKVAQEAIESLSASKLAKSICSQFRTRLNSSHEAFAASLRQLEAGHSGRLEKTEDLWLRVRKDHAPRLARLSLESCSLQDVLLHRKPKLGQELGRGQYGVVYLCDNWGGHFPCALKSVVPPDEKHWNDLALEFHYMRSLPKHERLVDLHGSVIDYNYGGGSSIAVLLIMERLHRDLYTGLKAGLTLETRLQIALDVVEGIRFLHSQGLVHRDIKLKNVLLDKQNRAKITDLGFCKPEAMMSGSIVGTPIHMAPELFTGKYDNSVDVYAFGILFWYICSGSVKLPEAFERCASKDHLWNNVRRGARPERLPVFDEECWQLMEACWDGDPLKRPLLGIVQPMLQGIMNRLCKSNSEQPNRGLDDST

[8] = biological target: RPS6KA4 (Homo sapiens, UniProt O75676)
RPS6KA4, sequence (O75676 whole entry): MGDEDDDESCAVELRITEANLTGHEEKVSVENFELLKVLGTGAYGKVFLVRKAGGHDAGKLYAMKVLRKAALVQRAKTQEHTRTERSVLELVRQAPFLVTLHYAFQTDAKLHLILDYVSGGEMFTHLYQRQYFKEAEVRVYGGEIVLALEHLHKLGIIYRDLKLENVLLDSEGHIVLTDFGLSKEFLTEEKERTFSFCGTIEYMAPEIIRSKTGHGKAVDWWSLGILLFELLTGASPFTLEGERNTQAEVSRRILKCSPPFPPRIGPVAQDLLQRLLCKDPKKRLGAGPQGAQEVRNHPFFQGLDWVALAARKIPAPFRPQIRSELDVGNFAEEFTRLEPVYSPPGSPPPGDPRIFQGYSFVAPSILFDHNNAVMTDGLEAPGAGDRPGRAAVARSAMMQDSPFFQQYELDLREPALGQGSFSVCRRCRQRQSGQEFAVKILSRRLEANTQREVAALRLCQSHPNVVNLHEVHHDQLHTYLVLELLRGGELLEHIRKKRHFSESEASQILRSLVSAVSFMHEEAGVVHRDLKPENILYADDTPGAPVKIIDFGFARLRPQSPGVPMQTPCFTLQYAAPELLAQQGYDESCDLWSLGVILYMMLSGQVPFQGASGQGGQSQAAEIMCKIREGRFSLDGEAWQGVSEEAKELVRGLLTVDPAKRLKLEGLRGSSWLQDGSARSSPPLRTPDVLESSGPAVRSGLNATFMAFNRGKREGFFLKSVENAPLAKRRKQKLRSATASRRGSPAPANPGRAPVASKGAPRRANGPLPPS

[9] = biological target: SIK1 (Homo sapiens, UniProt P57059)
[10] = biological target: CDK7 (Homo sapiens, UniProt P50613)
[11] = biological target: PRKD2 (Homo sapiens, UniProt Q9BZL6)
PRKD2, sequence (Q9BZL6 whole entry): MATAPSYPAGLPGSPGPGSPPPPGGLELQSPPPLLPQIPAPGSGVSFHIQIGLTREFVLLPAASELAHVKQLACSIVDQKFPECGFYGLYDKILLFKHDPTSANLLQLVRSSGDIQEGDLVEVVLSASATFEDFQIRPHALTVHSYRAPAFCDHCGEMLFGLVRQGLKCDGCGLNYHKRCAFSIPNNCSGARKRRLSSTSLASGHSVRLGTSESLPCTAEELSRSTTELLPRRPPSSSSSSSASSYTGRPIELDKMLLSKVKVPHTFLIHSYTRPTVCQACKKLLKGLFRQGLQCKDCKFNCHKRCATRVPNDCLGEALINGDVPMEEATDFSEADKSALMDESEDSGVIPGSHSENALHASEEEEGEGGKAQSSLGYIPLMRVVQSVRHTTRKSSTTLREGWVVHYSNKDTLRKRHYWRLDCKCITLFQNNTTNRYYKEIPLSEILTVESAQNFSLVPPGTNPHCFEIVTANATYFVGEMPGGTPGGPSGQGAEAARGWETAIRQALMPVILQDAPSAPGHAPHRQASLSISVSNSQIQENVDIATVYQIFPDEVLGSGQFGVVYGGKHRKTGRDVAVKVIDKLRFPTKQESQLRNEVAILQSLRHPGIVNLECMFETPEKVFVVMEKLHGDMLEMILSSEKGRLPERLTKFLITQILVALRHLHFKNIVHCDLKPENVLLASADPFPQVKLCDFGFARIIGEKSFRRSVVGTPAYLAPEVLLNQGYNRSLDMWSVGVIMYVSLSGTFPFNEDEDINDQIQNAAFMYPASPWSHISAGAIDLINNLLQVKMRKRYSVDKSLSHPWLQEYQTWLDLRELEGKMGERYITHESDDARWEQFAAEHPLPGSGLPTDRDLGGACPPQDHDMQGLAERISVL

[12] = biological target: OXSR1 (Homo sapiens, UniProt O95747)
[13] = biological target: PRKCB (Homo sapiens, UniProt P05771)
[14] = biological target: RIPK2 (Homo sapiens, UniProt O43353)
[15] = biological target: CSK (Homo sapiens, UniProt P41240)
[16] = biological target: PKMYT1 (Homo sapiens, UniProt Q99640)
[17] = biological target: TP53RK (Homo sapiens, UniProt Q96S44)
[18] = biological target: IKBKE (Homo sapiens, UniProt Q14164)
IKBKE, sequence (Q14164 whole entry): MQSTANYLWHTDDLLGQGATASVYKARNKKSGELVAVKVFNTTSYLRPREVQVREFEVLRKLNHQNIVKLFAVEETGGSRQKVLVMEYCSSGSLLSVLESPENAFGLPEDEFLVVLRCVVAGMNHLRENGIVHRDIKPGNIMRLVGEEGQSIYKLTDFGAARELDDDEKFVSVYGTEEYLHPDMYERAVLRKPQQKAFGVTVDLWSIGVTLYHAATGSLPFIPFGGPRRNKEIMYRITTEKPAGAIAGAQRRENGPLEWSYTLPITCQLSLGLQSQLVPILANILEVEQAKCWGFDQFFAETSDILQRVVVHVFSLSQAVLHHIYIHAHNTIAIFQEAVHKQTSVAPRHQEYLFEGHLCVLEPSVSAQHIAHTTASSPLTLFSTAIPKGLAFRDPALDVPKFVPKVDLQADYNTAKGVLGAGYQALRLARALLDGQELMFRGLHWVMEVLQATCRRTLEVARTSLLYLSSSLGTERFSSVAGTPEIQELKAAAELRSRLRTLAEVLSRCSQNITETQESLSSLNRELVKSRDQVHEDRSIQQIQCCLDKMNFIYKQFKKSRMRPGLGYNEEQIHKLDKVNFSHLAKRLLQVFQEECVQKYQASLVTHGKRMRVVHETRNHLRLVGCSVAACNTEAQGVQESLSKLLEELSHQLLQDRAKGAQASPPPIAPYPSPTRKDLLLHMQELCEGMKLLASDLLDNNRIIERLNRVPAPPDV

[19] = biological target: TAOK1 (Homo sapiens, UniProt Q7L7X3)
[20] = biological target: FES (Homo sapiens, UniProt P07332)
[21] = biological target: TNK2 (Homo sapiens, UniProt Q07912)

LATS2, sequence (Q9NRM7 whole entry): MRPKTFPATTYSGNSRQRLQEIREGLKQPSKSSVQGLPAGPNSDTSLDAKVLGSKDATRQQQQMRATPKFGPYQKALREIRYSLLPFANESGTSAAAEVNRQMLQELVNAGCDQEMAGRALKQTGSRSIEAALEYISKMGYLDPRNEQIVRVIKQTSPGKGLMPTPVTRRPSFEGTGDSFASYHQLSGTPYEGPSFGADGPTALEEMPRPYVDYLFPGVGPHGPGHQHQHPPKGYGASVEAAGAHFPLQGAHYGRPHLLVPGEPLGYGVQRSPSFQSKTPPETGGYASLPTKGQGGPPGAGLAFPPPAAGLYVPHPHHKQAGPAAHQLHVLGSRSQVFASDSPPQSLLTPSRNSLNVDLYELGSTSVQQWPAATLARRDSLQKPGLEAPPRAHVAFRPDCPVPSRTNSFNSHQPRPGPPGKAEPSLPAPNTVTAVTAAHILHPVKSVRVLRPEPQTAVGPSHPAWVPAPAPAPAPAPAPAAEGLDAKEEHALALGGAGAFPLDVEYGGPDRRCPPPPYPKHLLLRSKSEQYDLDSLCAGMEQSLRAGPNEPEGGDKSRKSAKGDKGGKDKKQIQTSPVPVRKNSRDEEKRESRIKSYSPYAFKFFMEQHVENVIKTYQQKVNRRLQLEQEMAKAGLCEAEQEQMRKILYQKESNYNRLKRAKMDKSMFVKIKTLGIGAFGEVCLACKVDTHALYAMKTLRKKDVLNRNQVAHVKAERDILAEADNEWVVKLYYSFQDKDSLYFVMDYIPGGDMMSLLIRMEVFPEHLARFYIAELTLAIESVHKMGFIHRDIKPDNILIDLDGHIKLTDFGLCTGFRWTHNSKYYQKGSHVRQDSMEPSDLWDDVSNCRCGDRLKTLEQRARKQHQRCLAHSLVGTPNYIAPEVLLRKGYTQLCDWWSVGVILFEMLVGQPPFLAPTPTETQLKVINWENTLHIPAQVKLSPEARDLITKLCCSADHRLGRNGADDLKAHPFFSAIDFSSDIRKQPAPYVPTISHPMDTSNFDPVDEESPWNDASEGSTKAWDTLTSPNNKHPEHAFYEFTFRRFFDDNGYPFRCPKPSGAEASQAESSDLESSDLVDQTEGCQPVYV

IC50 [1]: ≥ 20 µM
IC50 [2]: ≥ 20 µM
IC50 [3]: ≥ 20 µM
IC50 [4]: ≥ 20 µM
IC50 [5]: ≥ 20 µM
IC50 [6]: ≥ 20 µM
IC50 [7]: ≥ 20 µM
IC50 [8]: ≥ 20 µM
IC50 [9]: ≥ 20 µM
IC50 [10]: ≥ 20 µM
IC50 [11]: ≥ 20 µM
IC50 [12]: ≥ 20 µM
IC50 [13]: ≥ 20 µM
IC50 [14]: ≥ 20 µM
IC50 [15]: ≥ 20 µM
IC50 [16]: ≥ 20 µM
IC50 [17]: ≥ 20 µM
IC50 [18]: ≥ 20 µM
IC50 [19]: 1.5 µM
IC50 [20]: ≥ 20 µM
IC50 [21]: ≥ 20 µM
SMILES: COc1ccccc1-c1n[nH]c2nc(N[C@H]3CC[C@H](NS(=O)(=O)CCC(F)(F)F)CC3)nc(OC)c12 [compound 31, 3,3,3-Trifluoro-N-(trans-4-((4-methoxy-3-(2-methoxyphenyl)-1H-pyrazolo[3,4-d]pyrimidin-6-yl)amino)cyclohexyl)propane-1-sulfonamide]
